Data taken from PubChem BioAssay (NCI).
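Grown in 96-well plates, cells were treated for 48 hours with each compound at five concentrations. Insufficient inhibition: endpoint recorded as highest concentration tested. TGI denotes the concentration required for complete inhibition of growth.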 Where a SMILES comes first, the peptide text is derived from it. [ ]: non-standard residue; d: D form. The star is where a group is joined. Cbz = O=C(OCc1ccccc1)*; Aib = CC(C)(N)C(=O)O; OBn = c1ccc(CO*)cc1

Tests used:
Assay in all cases: inhibition of tumour cell growth, NCI panel, 48 h
RPMI-8226 leukemia = tested on: RPMI-8226 leukemia
MDA-MB-435 = tested on: MDA-MB-435
HCC-2998 colon = tested on: HCC-2998 colon
HT29 colon = tested on: HT29 colon
OVCAR-3 ovarian = tested on: OVCAR-3 ovarian
UACC-257 melanoma = tested on: UACC-257 melanoma
HL-60(TB) leukemia = tested on: HL-60(TB) leukemia
SF-539 CNS = tested on: SF-539 CNS
M14 melanoma = tested on: M14 melanoma
SR leukemia = tested on: SR leukemia
786-0 renal = tested on: 786-0 renal
MOLT-4 leukemia = tested on: MOLT-4 leukemia
RXF 393 renal = tested on: RXF 393 renal
DU-145 prostate = tested on: DU-145 prostate
HS 578T breast = tested on: HS 578T breast
SK-OV-3 ovarian = tested on: SK-OV-3 ovarian
PC-3 prostate = tested on: PC-3 prostate
SF-268 CNS = tested on: SF-268 CNS
SK-MEL-5 melanoma = tested on: SK-MEL-5 melanoma
IGROV1 ovarian = tested on: IGROV1 ovarian
NCI/ADR-RES ovarian = tested on: NCI/ADR-RES ovarian
TK-10 renal = tested on: TK-10 renal
U251 CNS = tested on: U251 CNS
SK-MEL-28 melanoma = tested on: SK-MEL-28 melanoma
NCI-H226 lung = tested on: NCI-H226 lung
MDA-MB-231 breast = tested on: MDA-MB-231 breast
CAKI-1 renal = tested on: CAKI-1 renal
UACC-62 melanoma = tested on: UACC-62 melanoma
KM12 colon = tested on: KM12 colon
SF-295 CNS = tested on: SF-295 CNS
COLO 205 colon = tested on: COLO 205 colon
CCRF-CEM leukemia = tested on: CCRF-CEM leukemia
MCF7 breast = tested on: MCF7 breast
MALME-3M melanoma = tested on: MALME-3M melanoma
OVCAR-4 ovarian = tested on: OVCAR-4 ovarian
HOP-62 NSCLC = tested on: HOP-62 NSCLC
LOX IMVI melanoma = tested on: LOX IMVI melanoma
UO-31 renal = tested on: UO-31 renal
NCI-H460 lung = tested on: NCI-H460 lung
MDA-N = tested on: MDA-N
SK-MEL-2 melanoma = tested on: SK-MEL-2 melanoma
OVCAR-5 ovarian = tested on: OVCAR-5 ovarian
ACHN renal = tested on: ACHN renal
HCT-15 colon = tested on: HCT-15 colon
A549 NSCLC = tested on: A549 NSCLC
OVCAR-8 ovarian = tested on: OVCAR-8 ovarian
HOP-92 NSCLC = tested on: HOP-92 NSCLC
EKVX NSCLC = tested on: EKVX NSCLC
K-562 leukemia = tested on: K-562 leukemia
SN12C renal = tested on: SN12C renal
BT-549 breast = tested on: BT-549 breast
HCT-116 colon = tested on: HCT-116 colon
NCI-H522 lung = tested on: NCI-H522 lung
T-47D breast = tested on: T-47D breast
NCI-H23 lung = tested on: NCI-H23 lung
SNB-19 CNS = tested on: SNB-19 CNS
SW-620 colon = tested on: SW-620 colon
A498 renal = tested on: A498 renal
SNB-75 CNS = tested on: SNB-75 CNS

CC(NC(=O)C(C)(C)NC(=O)C(CC(=O)OCc1ccccc1)NC(=O)OCc1ccccc1)C(N)=O (stereo not given) (Cbz-Asp(OBn)-[Aib]-Ala-NH2; configuration not given here)
TGI (RPMI-8226 leukemia): > 100 µM
TGI (MDA-MB-435): > 100 µM
TGI (HCC-2998 colon): > 100 µM
TGI (HT29 colon): > 100 µM
TGI (OVCAR-3 ovarian): > 100 µM
TGI (UACC-257 melanoma): > 100 µM
TGI (HL-60(TB) leukemia): > 100 µM
TGI (SF-539 CNS): > 100 µM
TGI (M14 melanoma): > 100 µM
TGI (SR leukemia): > 100 µM
TGI (786-0 renal): > 100 µM
TGI (MOLT-4 leukemia): > 100 µM
TGI (RXF 393 renal): > 100 µM
TGI (DU-145 prostate): > 100 µM
TGI (HS 578T breast): > 100 µM
TGI (SK-OV-3 ovarian): > 100 µM
TGI (PC-3 prostate): > 100 µM
TGI (SF-268 CNS): > 100 µM
TGI (SK-MEL-5 melanoma): > 100 µM
TGI (IGROV1 ovarian): > 100 µM
TGI (NCI/ADR-RES ovarian): > 100 µM
TGI (TK-10 renal): > 100 µM
TGI (U251 CNS): > 100 µM
TGI (SK-MEL-28 melanoma): > 100 µM
TGI (NCI-H226 lung): > 100 µM
TGI (MDA-MB-231 breast): > 100 µM
TGI (CAKI-1 renal): > 100 µM
TGI (UACC-62 melanoma): > 100 µM
TGI (KM12 colon): > 100 µM
TGI (SF-295 CNS): > 100 µM
TGI (COLO 205 colon): > 100 µM
TGI (CCRF-CEM leukemia): > 100 µM
TGI (MCF7 breast): > 100 µM
TGI (MALME-3M melanoma): > 100 µM
TGI (OVCAR-4 ovarian): > 100 µM
TGI (HOP-62 NSCLC): > 100 µM
TGI (LOX IMVI melanoma): > 100 µM
TGI (UO-31 renal): > 100 µM
TGI (NCI-H460 lung): > 100 µM
TGI (MDA-N): > 100 µM
TGI (SK-MEL-2 melanoma): > 100 µM
TGI (OVCAR-5 ovarian): > 100 µM
TGI (ACHN renal): > 100 µM
TGI (HCT-15 colon): > 100 µM
TGI (A549 NSCLC): > 100 µM
TGI (OVCAR-8 ovarian): > 100 µM
TGI (HOP-92 NSCLC): > 100 µM
TGI (EKVX NSCLC): > 100 µM
TGI (K-562 leukemia): > 100 µM
TGI (SN12C renal): > 100 µM
TGI (BT-549 breast): > 100 µM
TGI (HCT-116 colon): > 100 µM
TGI (NCI-H522 lung): > 100 µM
TGI (T-47D breast): > 100 µM
TGI (NCI-H23 lung): > 100 µM
TGI (SNB-19 CNS): > 100 µM
TGI (SW-620 colon): > 100 µM

OCCCc1ccc2c(c1)[C@H](CO)[C@@H](c1ccc(O)cc1)O2
TGI (RPMI-8226 leukemia): > 100 µM
TGI (MDA-MB-435): > 100 µM
TGI (HCC-2998 colon): 37.3 µM
TGI (HT29 colon): > 100 µM
TGI (OVCAR-3 ovarian): > 100 µM
TGI (UACC-257 melanoma): > 100 µM
TGI (HL-60(TB) leukemia): > 100 µM
TGI (SF-539 CNS): > 100 µM
TGI (M14 melanoma): > 100 µM
TGI (A498 renal): > 100 µM
TGI (SR leukemia): > 100 µM
TGI (786-0 renal): > 100 µM
TGI (MOLT-4 leukemia): > 100 µM
TGI (RXF 393 renal): > 100 µM
TGI (DU-145 prostate): > 100 µM
TGI (HS 578T breast): 38.6 µM
TGI (SK-OV-3 ovarian): > 100 µM
TGI (SNB-75 CNS): > 100 µM
TGI (PC-3 prostate): > 100 µM
TGI (SF-268 CNS): > 100 µM
TGI (SK-MEL-5 melanoma): 32.7 µM
TGI (IGROV1 ovarian): > 100 µM
TGI (NCI/ADR-RES ovarian): > 100 µM
TGI (TK-10 renal): > 100 µM
TGI (U251 CNS): > 100 µM
TGI (SK-MEL-28 melanoma): > 100 µM
TGI (NCI-H226 lung): > 100 µM
TGI (MDA-MB-231 breast): > 100 µM
TGI (UACC-62 melanoma): > 100 µM
TGI (KM12 colon): > 100 µM
TGI (SF-295 CNS): > 100 µM
TGI (COLO 205 colon): > 100 µM
TGI (CCRF-CEM leukemia): > 100 µM
TGI (MCF7 breast): > 100 µM
TGI (MALME-3M melanoma): 29.2 µM
TGI (OVCAR-4 ovarian): 30.4 µM
TGI (HOP-62 NSCLC): > 100 µM
TGI (LOX IMVI melanoma): > 100 µM
TGI (UO-31 renal): > 100 µM
TGI (NCI-H460 lung): > 100 µM
TGI (MDA-N): > 100 µM
TGI (SK-MEL-2 melanoma): > 100 µM
TGI (OVCAR-5 ovarian): > 100 µM
TGI (ACHN renal): > 100 µM
TGI (HCT-15 colon): > 100 µM
TGI (A549 NSCLC): > 100 µM
TGI (OVCAR-8 ovarian): > 100 µM
TGI (HOP-92 NSCLC): > 100 µM
TGI (EKVX NSCLC): > 100 µM
TGI (K-562 leukemia): > 100 µM
TGI (SN12C renal): > 100 µM
TGI (BT-549 breast): 47.8 µM
TGI (HCT-116 colon): > 100 µM
TGI (NCI-H522 lung): > 100 µM
TGI (T-47D breast): > 100 µM
TGI (NCI-H23 lung): > 100 µM
TGI (SNB-19 CNS): > 100 µM
TGI (SW-620 colon): > 100 µM
